The subject of experiment [1] is ADC-217 in DH10B Escherichia coli. The experiment in a line: MIC by broth microdilution, ADC-217 in DH10B E. coli. The settings on record: DH10B E. coli expressing ADC-217 (non-Adup) from pBCSK−, FDC in iron-depleted cation-adjusted MH broth, mode of triplicate. Type of experiment: cell-based. On the procedure: (§1) Susceptibility testing to standard antibiotics was performed by broth microdilution according to 2024 Clinical and Laboratory Standards Institute (CLSI) guidelines ([38]). MICs for FDC were done in iron-depleted cation-adjusted Mueller-Hinton (MH) broth according to CLSI methods. All MICs were interpreted according to the 2024 CLSI guidelines ([38]). MICs are done in triplicate, and the mode MIC value is reported.
(§2) blaADC-7 pBCSK− was cloned and expressed in E. coli DH10B cells as previously described for MIC determinations ([3]). The pBCSK-non-inducible phagemid vector has a chloramphenicol resistance gene used to aid selection. All other blaADC variants were synthesized by GenScript according to the blaADC-7 pBCSK− strategy, cloning into the XbaI/BamHI sites of the pBCSK− vector ([5]).
(Dilution methods test growth across graded concentrations, often in twofold steps.)

The subject of experiment [2] is ADC-33 in DH10B Escherichia coli. Nature of the experiment: MIC by broth microdilution, ADC-33 in DH10B E. coli. Type of experiment: cell-based. The settings on record: DH10B E. coli expressing ADC-33 (Adup) from pBCSK−, FDC in iron-depleted cation-adjusted MH broth, mode of triplicate. On the procedure:
as §1, §2

Experiment [3] concerns ADC-172 in DH10B Escherichia coli. The experiment in a line: MIC by broth microdilution, ADC-172 in DH10B E. coli. The format is cell-based. The settings on record: DH10B E. coli expressing ADC-172 (Adup) from pBCSK−, FDC in iron-depleted cation-adjusted MH broth, mode of triplicate. On the procedure: as §1, §2
Experiment [4] deals with ADC-218 in DH10B Escherichia coli. Nature of the experiment: MIC by broth microdilution, ADC-218 in DH10B E. coli. Type of experiment: cell-based. The settings on record: DH10B E. coli expressing ADC-218 (Adup) from pBCSK−, FDC in iron-depleted cation-adjusted MH broth, mode of triplicate. On the procedure: as §1, §2
In experiment [5] the test system is DH10B Escherichia coli pBCSK− no insert. The experiment in a line: MIC by broth microdilution, DH10B E. coli with pBCSK− no insert. Conditions: DH10B E. coli with pBCSK− no insert (control strain), FDC in iron-depleted cation-adjusted MH broth. The format is cell-based. As to the method: as §1, §2
In experiment [6] the test system is DH10B alone. The experiment in a line: MIC by broth microdilution, DH10B alone. The format is cell-based. Conditions: Escherichia coli; DH10B alone (control strain); FDC in iron-depleted cation-adjusted MH broth. On the procedure: as §1, §2
The target of experiment [7] is ADC-7 (Acinetobacter baumannii, UniProt Q6DRA1). The experiment in a line: Competition kinetics with nitrocefin (Ki), ADC-7. Type of experiment: biochemical. Conditions: 3 min pre-incubation, Cheng-Prusoff corrected. As to the method:
(§3) For inhibition kinetics, utilizing NCF as a colorimetric substrate of ADCs, the inhibition constant (Ki) of CAZ and FDC with ADCs was determined using competition kinetics as previously described ([5]). After a 3 min pre-incubation of the enzyme (2 nM) with increasing concentration of the inhibitor, measurements of the initial velocities were performed with the addition of 100–200 µM NCF (twofold of the experimentally determined KM value). To determine the average velocities (v0), data from three experiments were fit to the followingequation: […]
(§4) where vu represents the NCF uninhibited velocity and IC50 represents the inhibitor concentration that results in a 50% reduction of vu. The Ki value was corrected for the NCF affinity (KM values for each ADC) with the Cheng-Prusoff ([5]) equation: […]
(§5) The standard error for Ki values was generated by factoring in the larger of the proportional standard errors for the individual IC50 value and the KM -NCF value.

Experiment [8] concerns the target T1, ADC-30 (Acinetobacter baumannii, UniProt A7XM81). The experiment in a line: Competition kinetics with nitrocefin (Ki), ADC-30. Type of experiment: biochemical. The settings on record: 3 min pre-incubation, Cheng-Prusoff corrected. As to the method: as §3, §4, §5
In experiment [9] the target is ADC-73 (Acinetobacter baumannii, UniProt A0A059ZDI2). Nature of the experiment: Competition kinetics with nitrocefin (Ki), ADC-73. Type of experiment: biochemical. Conditions: 3 min pre-incubation, Cheng-Prusoff corrected. As to the method:
as §3, §4, §5

Experiment [10] addresses ADC-143 (Acinetobacter baumannii, UniProt Q6DRA1, Q144K, form not given). The experiment in a line: Competition kinetics with nitrocefin (Ki), ADC-143. Type of experiment: biochemical. The settings on record: 3 min pre-incubation, Cheng-Prusoff corrected. As to the method: as §3, §4, §5
In experiment [11] the target is ADC-217 (Acinetobacter baumannii, UniProt Q6DRA1, V286E, form not given). Nature of the experiment: Competition kinetics with nitrocefin (Ki), ADC-217. Type of experiment: biochemical. Conditions: 3 min pre-incubation, Cheng-Prusoff corrected. On the procedure:
as §3, §4, §5

Experiment [12] concerns the target T2, ADC-33 (Acinetobacter baumannii, UniProt A7Y407). Nature of the experiment: Competition kinetics with nitrocefin (Ki), ADC-33. The format is biochemical. Conditions: 3 min pre-incubation, Cheng-Prusoff corrected. On the procedure:
as §3, §4, §5

The target of experiment [13] is ADC-172 (Acinetobacter baumannii, UniProt A7Y407, N321K). Nature of the experiment: Competition kinetics with nitrocefin (Ki), ADC-172. Conditions: 3 min pre-incubation, Cheng-Prusoff corrected. The format is biochemical. As to the method:
as §3, §4, §5

The target in experiment [14] is T1, ADC-30. The experiment in a line: Timed electrospray ionization mass spectrometry of acylated adducts, ADC-30. The settings on record: ADC-30, +468 Da adduct, at 1 h; enzyme:substrate 1:25. The format is binding. As to the method:
(§6) β-Lactamase (5 µg) was incubated with substrate at a molar ratio of 1:25 (FDC, CAZ, meropenem [MEM]) in sterile 10 mM PBS, pH 7.4, for a total reaction volume of 20 µL (t = 30 s, 1 min, 15 min, 30 min, 1 h, 2 h, and 24 h). Reactions were quenched with 1% acetonitrile and 0.1% formic acid. Samples were analyzed using Q-TOF Waters Synapt-G2-Si and a Waters Acquity ultrapressure liquid chromatography BEH C18 column (1.7 µm […]; 2.1 × 50 mm). MassLynx v.4.1 was used to deconvolute protein peaks. The tune settings for each data run were as follows: capillary voltage at 3.5 kV, sampling cone at 35, source offset at 35, source temperature 100°C, desolvation temperature 500°C, cone gas at 100 L/h, desolvation gas at 800 L/h, and nebulizer bar at 6.0. Mobile phase A was 0.1% formic acid-water. Mobile phase B was 0.1% formic acid-acetonitrile. The mass accuracy for this system is ±5 Da. Mass spectrometry experiments were performed once over a range of time points.

Experiment [15] has as its target T2, ADC-33. The experiment in a line: Timed electrospray ionization mass spectrometry of acylated adducts, ADC-33. The format is binding. The settings on record: ADC-33, incubation 30 s–1 h; enzyme:substrate 1:25. On the procedure: as §6
Experiment [16] has as its target T1, ADC-30. The experiment in a line: Thermal denaturation by circular dichroism, ADC-30. The format is binding. Conditions: ADC-30 12 µM, 1 mM antibiotic, PBS pH 7.4; read-out: change of Tm of the β-lactamase on addition of antibiotic. As to the method: (§7) For thermal denaturation, protein samples were monitored for helical content by circular dichroism in the far-UV region at 210 and 220 nm using a Jasco J-815 spectrometer (Easton, MD) with a Peltier-effect temperature controller, as previously described ([41]). Enzyme concentrations were 12 µM in phosphate-buffered saline (PBS) pH 7.4. The thermodynamic stability of apoADC-30 and ADC-33, and with 1 mM FDC and CAZ, was determined from equilibrium unfolding curves. With the assumption of a reversible two-state transition, we determined the Tm at the midpoint of equilibrium folding. Thermal denaturation experiments were done in duplicate under the same conditions, with each data point representing the average of three successive scans, and the Tm values are consistent with ±1°C variation.
In general terms: Circular dichroism is widely used to follow secondary structure.

Experiment [17] deals with T2, ADC-33. Nature of the experiment: Thermal denaturation by circular dichroism, ADC-33. Conditions: ADC-33 12 µM, 1 mM antibiotic, PBS pH 7.4. Type of experiment: binding. On the procedure: as §7
Experiment [18] addresses T2, ADC-33. Conditions: hydrolysis by ADC-33; previously determined; cited from earlier work.
Experiment [19] concerns CRAb isolates. The settings on record: certain CRAb isolates with elevated MICs; cited from earlier work.

Converted amounts (≈) assume the structure as drawn. Read-outs that look alike come from different tables or passages of the source.

Regarding `CC(C)(O/N=C(\C(=O)N[C@@H]1C(=O)N2C(C(=O)[O-])=C(C[N+]3(CCNC(=O)c4ccc(O)c(O)c4Cl)CCCC3)CS[C@H]12)c1csc(N)n1)C(=O)O` [FDC, cefiderocol], the MIC in experiment [1] amounted to 0.25 µg/mL (≈ 0.332 µM); in experiment [2], 0.5 µg/mL (≈ 0.665 µM); in [3], 1.0 µg/mL (≈ 1.33 µM); in [3] (Escherichia coli, read-out: MIC), 1 µg/mL (≈ 1.33 µM); in experiment [4] it was 0.5 µg/mL (≈ 0.665 µM); in [5] it was 0.125 µg/mL (≈ 0.166 µM). Further, the MIC in [6] was 0.06 µg/mL (≈ 0.0798 µM); in experiment [19], not below 64 µg/mL. Besides, the Ki in experiment [7] was found to be 75 ± 5.32 µM; in experiment [8], 62.7 ± 3.95 µM; in [9], 111 ± 9.7 µM; in [10] it was 171 ± 27.7 µM; in experiment [11], 0.21 ± 0.025 µM; in experiment [12], 19.3 ± 1.46 µM. This compound also gave a Ki in [13] of 3.26 ± 0.31 µM. Further, in experiment [14], the “percentage of acylated adduct” value was determined as 70%. In addition, the “formation of stable acyl-enzyme adduct” value in [15] is given as “did not form a stable acyl-enzyme adduct”. Also, the ΔTm at 1000 µM in experiment [16] amounted to 2 °C. In [17], the “change of Tm of the β-lactamase on addition of antibiotic” value is “not observed”. Besides, in [18], the kcat is 0.60 s⁻¹.

Usually MIC stands for the lowest concentration found to suppress growth. As a reminder, the Ki is a measure of affinity in units of concentration, obtained from inhibition or displacement. Low readings indicate tighter binding, high ones weaker binding. As usually defined, the kcat is the maximal rate divided by the concentration of active sites.

Values taken from paper PMC12153338, “Resistance to oxyimino-cephalosporins conferred by an alternative mechanism of hydrolysis by the Acinetobacter-derived cephalosporinase-33 (ADC-33), a class C β-lactamase present in carbapenem-resistant Acinetobacter baumannii (CRAb)” (mBio, 2025).
